Here are results for 4 compounds from paper PMC7898648, “Synthesis and Evaluation of Non‐Hydrolyzable Phospho‐Lysine Peptide Mimics” (Chemistry (Weinheim an Der Bergstrasse, Germany), 2020).

Series [1] can be described thus: NMR titration for pKa determination of model peptides. Type of series: physicochemical. Conditions: 1 mM peptide in 40 mM KCl (H2O + 10 % D2O); for pKa2 (from 31P chemical shift vs pH, inflection point of sigmoidal fit): pH 2 to 11, 278 K, 600 MHz, 8a/8b: mono-protonated phosphoryl oxygen to di-anion, 8c: complete deprotonation of the phosphoryl oxygens. As for the experimental part: Next, we aimed to evaluate the charge distribution of peptides 8 a–c at physiological pH. […] An elegant technique for the pK a determination is NMR titration since this non‐invasive analytical technique enables accurate measurements at desired temperatures at a given pH. Our experimental set up was inspired by the NMR titration conducted by Gamcsik et al. on phosphoramidic acid and other phosphoramides. ^[23] Samples were prepared at a 1 mM concentration in 40 mM KCl (water + 10 % deuterium oxide) and kept at low temperature to minimize P−N bond hydrolysis for 8 c. The pH of each sample was adjusted before measurement and checked again afterwards. Proton (^1H), phosphorous (^31P) 1D as well as ^1H‐^31P‐heteronuclear multiple bond […] (HMBC) NMR spectra were recorded from pH 2 to pH 11 on a 600 MHz (^1H frequency) spectrometer at 278 K and subsequently used for calculations of pK a values (Figure 2 A, exemplified for 8 a, see Figure S3 for 8 b). In order to do so, the chemical shift of ^31P was plotted against the pH values and resulting curves fitted with sigmoidal functions wherein pK a values were obtained from the inflection points (Figure 2 B). We further evaluated the data by plotting and fitting of the ^1H chemical shifts – ζ‐protons for phosphonate 8 a and ϵ‐protons for phosphate 8 b and phosphoramidate 8 c (Figure S4).
Figure 2 A. NMR titration experiments of peptide 8 a. Conditions: NMR spectra of a solution containing 1 mM peptide in 40 mM KCl (H2O+10 % D2O) were recorded at distinct pH values on a 600 MHz (^1H frequency) spectrometer at 278 K. Shown are the overlay of 1D‐^31P spectra at different pH values and extracted correlation signals between ϵ‐protons and phosphorous from ^1H,^31P‐HMBC experiments. B. Graphical visualization of ^31P NMR measurements for phosphonate 8 a (red), phosphate 8 b (blue) and phosphoramidate 8 c (black).

Series [2] has as its target T1, alkaline phosphatase (ALP) (Bos taurus, UniProt P19111).
T1 construct: purchased Sigma-Aldrich (aliquots provided by Prof. Fiedler)
The experiment in a line: Enzymatic stability against alkaline phosphatase (released inorganic phosphate, EnzCheck kit). Type of series: in vitro ADME. Conditions: 1 mM substrate, 50 mM Tris, 1 mM MgCl2, 1 mM ZnCl2, pH 8.2, 30 °C, 0.05 U ALP, 2 h; photometric read-out of released Pi at 360 nm (SI: 100 μM, pH 7.8, 90 min); blank without enzyme subtracted. The procedure: With the three peptides 8 a–c in hand, we tested their enzymatic stability against the promiscuous alkaline phosphatase (ALP). The substrates 8 a–c were tested for stability towards ALP under optimized conditions. Briefly, 1 mM substrate was dissolved in 50 mM Tris, 1 mM MgCl2, 1 mM ZnCl2, pH 8.2, at 30 °C and was incubated with 0.05 U ALP for 2 h. and the amount of released inorganic phosphate (Pi) was determined via photometric read‐out. […] Furthermore, treatment of 8 b with ALP yielded in a Pi release, which indicated susceptibility of the phosphate analogue towards phosphatases.
Treatment of peptides 8a-c with alkaline phosphatase (ALP). […]
enzymatically hydrolyzed substrate, calculated by subtraction of detected inorganic phosphate (Pi) in blank reactions (without enzyme) from the reactions with enzyme ad de d . He r e i n , w e observed dephosphorylation for both peptides 8b and 8c, which indicated susceptibility of the phosphate analogue towards phosphatases. […]
Reactions were run for 90 min in total, UV -absorbance was measured every 10 min. The enzymatic hydrolysis yield [E] was determined by substraction of [BG]w/oBL from […]
UV/Vis spectra and absorbance values were determined either on a V -630 spectrophotometer at r.t. or a V-550 UV/Vis spectrophotometer equipped with an ETC-505T temperature controller at 20 °C (both Jasco, Tokyo, Japan). […]

The conditions of series [3]: potentiometrically detected; cited from earlier work.

T1 sequence (P19111 20-506 limits assumed): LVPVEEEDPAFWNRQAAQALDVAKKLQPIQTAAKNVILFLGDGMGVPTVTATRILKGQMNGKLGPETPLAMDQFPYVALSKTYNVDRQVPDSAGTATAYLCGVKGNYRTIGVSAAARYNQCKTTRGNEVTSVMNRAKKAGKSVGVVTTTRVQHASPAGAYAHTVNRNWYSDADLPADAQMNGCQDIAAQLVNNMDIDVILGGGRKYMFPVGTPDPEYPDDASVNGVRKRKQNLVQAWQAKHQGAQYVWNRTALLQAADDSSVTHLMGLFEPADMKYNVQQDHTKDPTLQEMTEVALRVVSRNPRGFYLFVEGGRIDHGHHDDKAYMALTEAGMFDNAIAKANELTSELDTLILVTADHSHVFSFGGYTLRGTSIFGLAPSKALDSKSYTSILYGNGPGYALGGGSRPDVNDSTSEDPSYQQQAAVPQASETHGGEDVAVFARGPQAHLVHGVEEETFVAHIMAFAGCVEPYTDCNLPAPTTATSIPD

`CC(=O)N[C@@H](Cc1ccc(O)cc1)C(=O)N[C@@H](CCCCNP(=O)(O)O)C(=O)NCC(N)=O` [8c, ^AcTyrpLysGly^CONH2]: in series [1], the “pKa2 (from 31P chemical shift vs pH, inflection point of sigmoidal fit)” value is 2.88±0.30. Also, the “pKa3 (deprotonation of the amine)” value in series [1] (31P shift vs pH, 278 K) is on record as 9.64±0.07.
In the case of `CC(=O)N[C@@H](Cc1ccc(O)cc1)C(=O)N[C@@H](CCSCCP(=O)(O)O)C(=O)NCC(N)=O` [8a], the “pKa2 (from 31P chemical shift vs pH, inflection point of sigmoidal fit)” value in series [1] was found to be 7.08±0.03.
With `CC(=O)N[C@@H](Cc1ccc(O)cc1)C(=O)N[C@@H](CCCCOP(=O)(O)O)C(=O)NCC(N)=O` [8b], in series [1], the “pKa2 (from 31P chemical shift vs pH, inflection point of sigmoidal fit)” value amounted to 6.54±0.13. The “stability towards ALP (enzymatic hydrolysis, Pi release)” value in series [2] is recorded as “dephosphorylation”.
In the case of `CCCCNP(=O)(O)O` [N‐(n‐butyl)phosphoramidate], in series [3], the “pKa for the protonation on nitrogen” value is given as 9.9 and the “pKa for the protonation on one phosphoryl oxygen” value is 2.9.
